In a melting point compilation (Tetko et al.; mined from patent text by program, amines drawn as free bases though some values may be those of a salt):

| Compound | melting point [°C] |
| --- | --- |
| NC(=O)C1CCC(=O)N1CC#CCN1CCCCC1 (configuration not stated) | 143 to 145 |
| COc1cc2nc(Cl)nc(Cl)c2c(OC)c1OC | 213 to 215 |
| O=C(O)CCCCCNC(=NC(=O)OCc1ccccc1)NC(=O)OCc1ccccc1 | 93 |
| C=C(C)C(=O)Nc1ccc(NC(=O)Nc2ccc(C#N)cc2)c(O)c1 | 247 to 249 |
| CC(=O)OCC(=O)Nc1cccc(N2CCOCC2)c1C#N | 131 to 132 |
| Cn1c(=O)c2c(nc(N3CCC(NC(=O)OC(C)(C)C)C3)n2Cc2ccccc2Br)n(C)c1=O (configuration not stated) | 104 to 106 |
| CCNC1CCN(c2c(F)c(N)c3c(=O)c(C(=O)O)cn(C4CC4)c3c2OC)CC1C (configuration not stated) | 230 to 232 |
| NC(=O)/C=C1\CC(O)c2ccc(F)cc21 (configuration not stated) | 166 to 168 |
| COCc1nc(NC(=O)NS(=O)(=O)c2ccccc2C(=O)OC)nc(SC)n1 | 147 to 149 |
| CSc1ccc(C(=O)c2c(C)c(C(=O)O)c3n2CCC3C(=O)O)n1C (configuration not stated) | 212 to 213 |
| COCCC(=O)OC1(C(=O)CO)CCC2C3CCC4=CC(=O)CCC4(C)C3C(O)CC21C (configuration not stated) | 172 |
| Cc1ccc(N2C(=O)C(O)=C(C(=O)c3ccc(C(C)C)cc3)C2c2ccc(-c3nnc(C)o3)cc2)nn1 (configuration not stated) | 293 |
| CS(=O)(=O)N(Cc1cccnc1)c1ccc(F)cc1 | 112 to 113 |
| Clc1ccc(-c2nc(Cl)c3c(n2)CCCC3)cc1 | 121 |
| CCCCNNc1nc(C)c(C(=O)OCC)c(Cl)c1[N+](=O)[O-] | 59 to 61 |
| Cn1cnnc1C(N)(c1ccc(C#N)cc1)c1ccc2c(c1)c(-c1cccc(Cl)c1)nc1nnnn12 (configuration not stated) | 194 |
| COC(=O)c1cc(I)c(C(F)(F)F)cc1N | 101 to 103 |
| CS(=O)(=O)c1ccc(-c2nc(C(F)(F)F)nc(Cl)c2-c2ccc(S(=O)(=O)Cl)cc2)cc1 | 207 to 210 |
| N#Cc1c(F)nc2ccc([N+](=O)[O-])cc2c1F | 128 to 129 |
| CC(C)(C)Cc1ccc(C(=O)O)cc1 | 191 to 193 |
| CCCCn1c(COCC)nc2c(N)nc3ccc(Br)cc3c21 | 182 to 183 |
| COc1ccnc(CSc2nc3cc(F)c(F)cc3[nH]2)c1C | 216 to 218 |
| N#Cc1ccnc(N2CCOCC2)c1 | 135 to 136 |
| COc1ccc(Nc2nccc(-c3cccnc3)n2)cc1 | 121 to 122 |
| CC(=O)n1ccc2c(I)ncnc21 | 123 to 124 |
| COC1CCc2c(Nc3ccc(C#N)cc3)ncnc21 (configuration not stated) | 167 to 169 |
| CC(C)(C)OC(=O)N1CC=C(c2ccc(N)c([N+](=O)[O-])c2)CC1 | 111 to 112 |

| Compound | melting point [°C] |
| --- | --- |
| CC(c1cc(Br)c(O)c(Br)c1)(c1cc(Br)c(O)c(Br)c1)c1cc(Br)c(O)c(Br)c1 | 160 |
| Clc1ccccc1C(Cl)(c1ccccc1)c1ccccc1 | 131 |
| O=S(=O)(c1ccc2nccnc2c1)c1cccc2cnccc12 | 187 to 189 |
| O=C(O)/C=C/c1ccc(OS(=O)(=O)C(F)(F)F)cc1 | 194 |
| Cc1ccc(NCCN(C)C)c([N+](=O)[O-])c1 | 59 |
| O=C(Nc1ccc(-n2nc(C(F)(F)F)cc2C(F)(F)F)cc1)c1ccc[nH]1 | > 240 |
| CCCCCCCCCCCCCCOc1ccc(C(N)=O)cc1 | 128 to 130 |
| O=C(O)c1cn(C2CC2)c2cc(N3CCNCC3)c(F)c(F)c2c1=O | > 300 |
| Oc1ccc(C(c2ccc(O)cc2)c2cccc3ccccc23)cc1 | 109 to 111 |
| CN(C)C1CCc2[nH]c3cccc(OCc4ccccc4)c3c2C1 (configuration not stated) | 207 to 209 |
| CC(C)c1ccc(Cn2nnnc2-c2ccc(OC(=O)C(C)(C)C)cc2)cc1 | 111 to 113 |
| CCCCCCCCCCCCOC(=O)NS(=O)(=O)Cl | 62 to 63 |
| Cc1ccc(-n2ncc(C(=O)Nc3ccc(N4CCN(C5CCOCC5)CC4)c(C#N)c3)c2C)cc1 | 258 |
| COc1ccc(CNC(=O)c2nccnc2N)cc1 | 93 to 95 |
| CSc1nc2cccccc-2n1 | 101 to 102 |
| COc1ccc2c(c1)CCC1C2CCC2(C)C(NCc3ccc(O)c(OC)c3)CCC12 (configuration not stated) | 169 to 170 |
| Nc1cc(Cl)nc(C(=O)O)c1C(F)F | 149 to 151 |
| Cc1cc(OC(=O)C(C)(C)C)cc(C)c1O | 92 to 94 |
| COC(=O)c1cc(N)n[nH]1 | 134 |
| O=[N+]([O-])c1ccc2c(c1)OCC2 | 71 to 72 |
| CC(C)N1CCC(CN2CCN(CC3CCN(C(C)C)CC3)C2=C(C#N)C#N)CC1 | 172 to 174 |
| O=C(O)c1ccncc1C(=O)c1cc(F)ccc1F | 214 to 216 |
| CCCN(CCCCNC(=O)N1CCc2cc(OC)c(OC)cc2C1)C1CCc2ncsc2C1 (configuration not stated) | 106 |
| CC(C)C(NC(=O)OCc1csc(N2CCCC2)n1)C(=O)NC(Cc1ccccc1)CC(O)C(Cc1ccccc1)NC(=O)OCc1cncs1 (configuration not stated) | 146 to 148 |
| Cc1cc(C)c2nc(CO)[nH]c2n1 | 244 to 246 |
| Cc1cc(-c2c[nH]c(C)n2)ccn1 | 115 to 117 |

The remaining lines, values ahead:

| melting point [°C] | Compound |
| --- | --- |
| 124 to 125 | CCS(=O)(=O)N[C@H](C(=O)NCCc1ccc(OCCOc2ccc(F)cc2)c(OC)c1)C(C)C |
| 108 | COc1ccc(-c2cccc(-c3ccc(OC)c(F)c3)n2)cc1F |
| 167 to 168 | COCCOCCOc1ccc2sc(C(=O)Nc3ccccc3N)cc2c1 |
| 104 to 105 | O=C(O)C(Cc1ccccc1)Cc1ccc([N+](=O)[O-])cc1 (configuration not stated) |
| > 359 | COc1ccc(C(=O)Nc2c(Cl)cncc2Cl)c2c1[nH]c1ccc(Cl)cc12 |
| 139 to 140 | COC(=O)c1ccc(Cn2nc(OCc3ccccc3)c3ccc(NC(=O)CC4CCCC4)cc32)c(OC)c1 |
| 143 to 145 | COC(=O)c1[nH]c2c(C)ccc(C)c2c1-c1ccccc1 |
| 215 to 216 | NC(=O)c1ccc(-c2ccc(O)cc2)cc1Cl |
| > 230 | Cc1cccc(NC(=O)c2ccccc2CN2C(=O)C3(COc4cc5c(cc43)CCO5)c3ccccc32)c1C (configuration not stated) |
| 250 to 252 | COc1cc2c(=O)n(CCCN3CCOCC3)c3c4ccccc4[nH]c(=O)c3c2cc1OC |
| 146 | Cc1ncn(Nc2cccc(Cl)c2)c1C |
| 211 to 213 | CCCCn1c(=O)cc(O)c2ccccc21 |
| 183 to 185 | N#Cc1c(Cc2ccccc2)n[nH]c1N |
| 120 to 122 | CC(C)(C)OC(=O)Nc1ccc(C#Cc2ccccc2Cl)cc1N |
| 122 to 123 | CCOC(=O)COc1cc(Cl)c2c(=O)c(-c3ccccc3C)coc2c1 |
| 268 to 288 | Oc1ccc2c(-c3noc4cc(O)ccc34)cccc2c1 |
| 198 to 200 | O=C1Nc2ccc(Cl)cc2C1c1ccccc1Cl (configuration not stated) |
| 124 | CCOC(=O)C1=C(C)NN=C(CC)C1c1cccc([N+](=O)[O-])c1 (configuration not stated) |
| 229 | CCOCc1cc2c(cc1C#Cc1ccccc1)NC(=O)CC(c1cccc(C#N)c1)=N2 |
| 180 to 181 | O=C(O)CN1C(=O)C(c2ccccc2)c2ccccc21 (configuration not stated) |
| 196 to 197 | CCCn1c(=O)c(-c2c(Cl)cccc2Cl)cc2cnc(N)nc21 |
| 214 to 215 | O=C(c1cc2ccc(O)cc2[nH]1)N1CCC(Cc2ccccc2)CC1 |
| 125 | CCC=Cc1nc2ccccc2n1-c1cccc(C#N)c1C |
| 168 to 170 | Nc1nc2ccccc2c2c1nc(COc1ccccc1)n2CCOc1ccccc1 |
| 172 to 174 | CC(C)(C)OC(=O)Nc1ccc(O)c2ccccc12 |

| melting point [°C] | Compound |
| --- | --- |
| 198 to 200 | Cc1oc(-c2ccccc2)nc1CCC(=O)c1ccc(CC2OC(=O)NC2=O)cc1 (configuration not stated) |
| 122 to 124 | CCCCNC(=O)Oc1ccc(Oc2ccc([N+](=O)[O-])cc2)cc1 |
| 90 to 92 | CN(CCOc1ccccc1)[C@H]1CC[C@H](c2ccc(O)cc2)CC1 |
| 215 to 216 | O=C(O)c1ccccc1C(=O)Nc1cccc(-c2ccnc3c(C(=O)c4cccs4)cnn23)c1 |
| 124 to 125 | Oc1ccccc1Cc1ccc2ccccc2c1O |
| 223 to 227 | CCC(c1oc2ccccc2c(=O)c1-c1ccc(F)cc1)n1cnc2c(N)ncnc21 (configuration not stated) |
| 178 | Cc1nc2cnc3ccc(Cl)cc3c2n1-c1ccccc1Cl |
| 112 to 114 | Cc1ccc(-c2nc(SCc3ccccn3)n[nH]2)c(C)c1 |
| 91 | O=S(=O)(CC(O)(CBr)c1ccccc1)c1ccccc1 (configuration not stated) |
| 66 to 68 | COCCNCc1ccccc1Oc1ccc(-c2cn(C3CCOC3)c3ncnc(N)c23)cc1 (configuration not stated) |
| 275 to 276 | CC1=C(C(=O)N2CCCCC2)C(c2ccccc2[N+](=O)[O-])C(S(C)(=O)=O)=C(C)N1 (configuration not stated) |
| 139 to 141 | COc1cc(N(C)C)c(Cl)cc1C(=O)NC1CCN(Cc2ccc(F)cc2)C1 (configuration not stated) |
| 133 to 135 | Cc1cccc(Oc2cccc(C#CC(C)N(O)C(N)=O)c2)n1 (configuration not stated) |
| 37 to 38 | CCCCCCCCc1ccccc1CCC(NC(C)=O)(C(=O)OCC)C(=O)OCC |
| 130 to 131 | Cc1nc(C)c(Cl)c(NCc2ccc(OCc3ccccc3)cn2)n1 |
| 76 to 78 | CC(C)(C)c1cccc(C[C@@H](NC(=O)c2ccc(F)c3ccccc23)[C@@H](O)c2cccc(Cl)c2)c1 (racemic) |
| 137 | COc1ccc(Cl)cc1C(C)(C)c1cc(Cl)ccc1O |
| 141 to 142 | CCCOc1ccccc1-c1nc2nc(N(CC)CCO)ncc2c(=O)[nH]1 |
| 157 to 160 | CC(C)(C)c1csc(-c2cc3cc(CCC(=O)O)ccc3o2)n1 |
| 83 to 84 | Cc1cc(N)cnc1Oc1cccc(C(C)(C)C)c1 |
| 224 to 227 | COc1ccc2[nH]c(C(=O)N3CC(CCl)c4c3cc(O)c3ncccc43)cc2c1 (configuration not stated) |
| 95 to 100 | CC(C)c1c(C=CC(=O)CC(O)CC(=O)O)c(-c2ccccc2)c2c3ccccc3ccn12 (configuration not stated) |
| 163 to 166 | CCOC(=O)c1ccc(NC(=O)C=Cc2ccc(OC)cc2)cc1 |
| 197 to 198 | CCP(=O)(CC)Cc1ccc(NC(=O)/C=C/c2cccc(-c3ccc(C)cc3)c2)cc1 |
